Laboratory results: ChEMBL document CHEMBL1201862, “PubChem BioAssay data set” (2004)
The source made the active and inactive calls.

Tests used:
HEK293 [1] = experiment: cells; assay type: functional, cell-based; conditions: Homo sapiens
HEK293 [2] = experiment: cells; assay type: functional, cell-based; conditions: Homo sapiens; remark: listed apart in the source
Nonstructural protein 1 = Nonstructural protein 1 (Influenza A virus, UniProt Q194T2); assay type: functional, Influenza A virus (A/California/07/2009(H1N1))
[3] = system: Streptococcus sp. 'group A'; experiment: growth inhibition of control SK(-) GAS strain, dose response, counter-screen for streptokinase expression inhibitor project, luminescence, kanamycin, BacTiterGlo, confirmation (AID 1900); assay type: functional, organism-based
[4] = inhibitors of firefly luciferase expression or activity, dose response, H4 neuroglioma cells, luminescence (AID 1990); assay type: functional, cell-based
[5] = biological target: T1, Kappa-type opioid receptor (Homo sapiens, UniProt P41145); assay type: functional
INS1 = experiment: beta cell apoptosis inhibitors, cytokine rescue, dose response, luminescence, retest (AID 449756); assay type: functional, cell-based; conditions: Rattus norvegicus;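 note: cell death triggered by IL-1 beta plus TNF-alpha plus IFN-gamma mixture; protective hits raise ATP signal compared with cytokine alone wells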
HEK293 [6] = experiment: NOD1 signaling inhibitors, primary screen, cell-based, luminescence, uHTS (AID 1578); assay type: functional; conditions: Homo sapiens
Vero [7] = experiment: cells; assay type: functional, cell-based, Chlorocebus sabaeus; conditions: Chlorocebus sabaeus, Vero
HEK293 [8] = experiment: cells; assay type: functional, cell-based; conditions: Homo sapiens; remark: listed apart in the source
[9] = Luminescence Cell-Based Dose Response HTS to Identify Inhibitors of 5'UTR Stem-Loop Driven Prion Protein mRNA Translation in H4 Neuroglioblastoma Cells. [Related pubchem assays: 1827 (Project Summary), 1813 (Primary HTS)]; assay type: functional
Vero [10] = experiment: cells; assay type: functional, Chlorocebus sabaeus; conditions: Chlorocebus sabaeus, Vero
Streptococcus = experiment: Group A Streptococcus viability loss, dose response, counter-screen for streptokinase expression inhibitor project, luminescence, BacTiterGlo (AID 1915); assay type: functional, organism-based;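 note: potency for reduction of bacterial viability or growth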
[11] = inhibitors of SNCA 5'UTR-driven reporter translation, confirmation, H4 neuroglioma cells, luminescence (AID 1988); assay type: functional, cell-based
[12] = biological target: Nucleotide-binding oligomerization domain-containing protein 2 (Homo sapiens, UniProt Q9HC29); experiment: NOD2 signaling inhibitors, cell-based, luminescence, uHTS, HEK293 (AID 1566); assay type: functional
[13] = biological target: T1, Kappa-type opioid receptor; assay type: functional; remark: listed apart in the source
[14] = A Cell Based Secondary Assay To Explore Cytotoxicity of Compounds that Sensitize Mycobacterium Tuberculosis to Beta-Lactam Antibiotics.; assay type: functional
HEK293 [15] = experiment: NOD2 signaling inhibitors in MDP-stimulated cells, cell-based, uHTS, luminescence (AID 2001); assay type: functional; conditions: Homo sapiens
Beta-galactosidase = Beta-galactosidase (Escherichia coli, UniProt Q8VNN2); assay type: functional
[16] = biological target: Acyl-homoserine lactone acylase PvdQ (Pseudomonas aeruginosa (strain LESB58), UniProt Q9I194); experiment: P. aeruginosa PvdQ acylase inhibitors, dose response, biochemical, fluorescence, plate reader and imaging, cherry-picks (AID 493231)
[17] = biological target: Melanin-concentrating hormone receptor 1 (Homo sapiens, UniProt Q99705); experiment: Late-stage fluorescence-based counterscreen for antagonists of the G-protein coupled receptor 7 (GPR7): cell-based dose response assay to identify antagonists of the melanin-concentrating hormone receptor 1 (MCHR1). [Related pubchem assays (depositor defined):AID1861, AID1880, AID1952, AID2148, AID2251, AID2257, AID485339]; assay type: functional;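 note: stimulated with 30 nM MCH peptide agonist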
Fatty acid synthase [18] = biological target: T2, Fatty acid synthase (Homo sapiens, UniProt P49327); experiment: FAS thioesterase domain inhibitors, dose response, biochemical, endpoint fluorescence intensity, uHTS hits (AID 624327); assay type: functional;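 note: fluorescence from hydrolysis of an O-methyl fluorescein acyl ester substrate by the enzyme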
[19] = biological target: G-protein coupled receptor 55 (Homo sapiens, UniProt Q9Y2T6); experiment: GPR55 antagonists blocking LPI-driven arrestin recruitment, primary screen, imaging, U2OS, beta-arrestin-GFP, LPI agonist (AID 2013); assay type: functional;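 note: antagonist potency measured as reduced agonist-driven arrestin aggregation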
Fatty acid synthase [20] = biological target: T2, Fatty acid synthase; experiment: FAS thioesterase domain inhibitors, dose response, biochemical, kinetic fluorescence intensity (AID 624326); assay type: functional;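 note: rate of fluorescence rise from hydrolysis of a fluorogenic O-methyl fluorescein ester substrate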
Hexokinase = Hexokinase (Trypanosoma brucei, UniProt Q38C41); experiment: Confirmation assay for inhibitors of Trypanosoma brucei hexokinase 1-Analogue-first series. [Related pubchem assays (depositor defined):AID1430, AID1632, AID2516, AID2560, AID2579, AID2600, AID449725, AID492951]; assay type: functional
Interleukin-8 [21] = biological target: T3, Interleukin-8 (Homo sapiens, UniProt P10145); experiment: Dose Response confirmation of uHTS small molecule hits for cystic fibrosis induced NFkb Inhibitors in a TNFa-induced IL8 counterscreen.; assay type: functional; conditions: read-out: IC50_Mean
T3 sequence (P10145 whole entry): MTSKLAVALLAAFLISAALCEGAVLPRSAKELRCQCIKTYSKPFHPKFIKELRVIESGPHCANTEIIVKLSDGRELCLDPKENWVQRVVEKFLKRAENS

Interleukin-8 [22] = biological target: T3, Interleukin-8; experiment: Dose Response confirmation of uHTS small molecule hits for cystic fibrosis induced NFkb Inhibitors in a PAF-induced IL8 counterscreen.; assay type: functional; conditions: read-out: IC50_Mean
[23] = biological target: T4, E3 ubiquitin-protein ligase XIAP (Homo sapiens, UniProt P98170); experiment: Counter Screen using XIAP-Bir3 for Chemical Antagonists of Bir1/2 domains of IAP-family anti-apoptotic proteins. [Related pubchem assays (depositor defined):AID1018, AID1449, AID1514, AID1638, AID1749, AID1750, AID488957, AID488963]
[24] = biological target: T4, E3 ubiquitin-protein ligase XIAP; experiment: XIAP antagonists, biochemical, IAP family, fluorescence polarization (AID 1018); assay type: functional
[25] = biological target: Cystic fibrosis transmembrane conductance regulator/Golgi-associated PDZ and coiled-coil motif-containing protein (Homo sapiens, UniProt P13569+Q9HD26); experiment: CAL PDZ peptide-binding inhibitors, dose response, biochemical, fluorescence polarization, Cerulean-tagged CAL PDZ, cherry-picks (AID 504773)
[26] = human group III sPLA2 inhibitors, dose response, biochemical, QFRET, IC50 (AID 743457);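 note: green fluorescence rise as the enzyme cleaves BODIPY PC-A2 in liposomes; potency for inhibition of the enzyme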
[27] = biological target: Heat shock protein HSP 90-alpha (Homo sapiens, UniProt P07900); assay type: functional, organism-based

T2 sequence (P49327 whole entry, the tested form may be a part): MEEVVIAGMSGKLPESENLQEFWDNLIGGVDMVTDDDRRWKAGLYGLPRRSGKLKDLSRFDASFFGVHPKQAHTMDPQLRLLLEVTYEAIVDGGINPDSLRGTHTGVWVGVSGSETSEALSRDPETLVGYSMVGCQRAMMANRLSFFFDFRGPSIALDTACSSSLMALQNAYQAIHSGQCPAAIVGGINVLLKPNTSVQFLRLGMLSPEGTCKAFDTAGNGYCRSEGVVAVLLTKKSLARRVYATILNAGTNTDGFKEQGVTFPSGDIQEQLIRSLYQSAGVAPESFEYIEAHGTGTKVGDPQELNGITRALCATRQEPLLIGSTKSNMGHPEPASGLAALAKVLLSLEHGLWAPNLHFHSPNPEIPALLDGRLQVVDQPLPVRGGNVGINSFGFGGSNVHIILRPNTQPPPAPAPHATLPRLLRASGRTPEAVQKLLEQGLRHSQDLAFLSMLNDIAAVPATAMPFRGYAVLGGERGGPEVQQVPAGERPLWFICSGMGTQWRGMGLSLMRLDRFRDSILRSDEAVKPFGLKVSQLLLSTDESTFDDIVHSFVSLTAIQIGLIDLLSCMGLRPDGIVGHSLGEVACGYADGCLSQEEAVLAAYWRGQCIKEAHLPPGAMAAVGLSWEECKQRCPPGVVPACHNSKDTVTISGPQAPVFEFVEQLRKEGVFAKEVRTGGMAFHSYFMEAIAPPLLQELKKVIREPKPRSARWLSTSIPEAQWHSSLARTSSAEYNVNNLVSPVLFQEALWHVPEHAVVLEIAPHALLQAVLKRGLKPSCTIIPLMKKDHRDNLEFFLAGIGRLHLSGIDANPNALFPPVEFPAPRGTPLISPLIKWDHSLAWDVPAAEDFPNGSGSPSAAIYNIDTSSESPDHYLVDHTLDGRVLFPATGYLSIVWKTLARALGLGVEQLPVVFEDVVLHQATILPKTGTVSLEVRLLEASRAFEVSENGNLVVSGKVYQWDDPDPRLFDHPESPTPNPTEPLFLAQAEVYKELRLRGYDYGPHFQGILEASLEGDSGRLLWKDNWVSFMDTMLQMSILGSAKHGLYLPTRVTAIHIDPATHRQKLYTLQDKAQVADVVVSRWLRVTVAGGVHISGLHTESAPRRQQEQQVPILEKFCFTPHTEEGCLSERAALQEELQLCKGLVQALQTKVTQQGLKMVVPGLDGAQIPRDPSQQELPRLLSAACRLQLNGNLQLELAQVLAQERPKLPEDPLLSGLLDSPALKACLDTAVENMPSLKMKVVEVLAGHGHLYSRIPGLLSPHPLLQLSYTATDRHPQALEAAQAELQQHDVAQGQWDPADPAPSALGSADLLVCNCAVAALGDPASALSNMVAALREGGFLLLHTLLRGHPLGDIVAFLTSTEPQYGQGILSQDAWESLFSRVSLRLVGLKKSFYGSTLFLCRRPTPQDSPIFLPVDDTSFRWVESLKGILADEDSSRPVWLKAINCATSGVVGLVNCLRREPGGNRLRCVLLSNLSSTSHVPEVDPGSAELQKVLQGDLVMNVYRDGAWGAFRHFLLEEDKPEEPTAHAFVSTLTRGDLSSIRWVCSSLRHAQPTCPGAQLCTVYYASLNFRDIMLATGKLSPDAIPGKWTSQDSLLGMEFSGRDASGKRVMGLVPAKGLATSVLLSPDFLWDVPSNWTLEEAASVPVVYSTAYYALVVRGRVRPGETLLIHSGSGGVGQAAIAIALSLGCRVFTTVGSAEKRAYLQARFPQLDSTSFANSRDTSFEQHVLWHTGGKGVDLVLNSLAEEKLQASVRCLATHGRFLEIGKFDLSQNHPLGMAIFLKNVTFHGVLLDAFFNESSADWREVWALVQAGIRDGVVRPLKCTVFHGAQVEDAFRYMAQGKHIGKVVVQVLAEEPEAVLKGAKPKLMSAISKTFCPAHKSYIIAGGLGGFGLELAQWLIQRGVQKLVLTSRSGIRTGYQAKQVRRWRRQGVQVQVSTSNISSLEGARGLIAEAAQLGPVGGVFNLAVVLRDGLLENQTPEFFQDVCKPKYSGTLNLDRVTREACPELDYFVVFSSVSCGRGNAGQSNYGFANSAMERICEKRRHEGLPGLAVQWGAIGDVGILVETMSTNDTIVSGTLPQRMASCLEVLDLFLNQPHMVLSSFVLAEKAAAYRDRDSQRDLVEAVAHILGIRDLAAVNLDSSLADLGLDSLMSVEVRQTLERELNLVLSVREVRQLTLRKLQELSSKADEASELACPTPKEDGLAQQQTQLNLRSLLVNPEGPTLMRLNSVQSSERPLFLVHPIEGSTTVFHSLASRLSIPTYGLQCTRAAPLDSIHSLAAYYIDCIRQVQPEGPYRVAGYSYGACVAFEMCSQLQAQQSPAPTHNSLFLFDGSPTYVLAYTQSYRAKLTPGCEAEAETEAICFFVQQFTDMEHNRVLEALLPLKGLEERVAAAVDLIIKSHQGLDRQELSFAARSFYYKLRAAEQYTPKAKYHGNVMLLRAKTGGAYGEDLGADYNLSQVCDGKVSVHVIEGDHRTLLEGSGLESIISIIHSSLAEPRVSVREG
Chain of Nonstructural protein 1 (Q194T2 whole entry): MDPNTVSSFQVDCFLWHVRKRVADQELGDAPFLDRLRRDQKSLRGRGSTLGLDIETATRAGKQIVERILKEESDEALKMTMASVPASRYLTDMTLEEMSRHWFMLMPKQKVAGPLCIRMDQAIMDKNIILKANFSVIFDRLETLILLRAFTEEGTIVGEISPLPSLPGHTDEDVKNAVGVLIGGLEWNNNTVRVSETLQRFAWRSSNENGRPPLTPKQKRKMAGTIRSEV
Chain of Acyl-homoserine lactone acylase PvdQ (Q9I194 24-193 limits assumed): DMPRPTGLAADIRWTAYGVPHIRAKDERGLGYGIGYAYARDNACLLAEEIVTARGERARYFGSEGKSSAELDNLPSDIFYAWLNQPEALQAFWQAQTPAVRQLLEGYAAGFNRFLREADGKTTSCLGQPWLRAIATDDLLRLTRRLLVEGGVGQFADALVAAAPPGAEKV
Chain of Acyl-homoserine lactone acylase PvdQ (Q9I194 217-762 limits assumed): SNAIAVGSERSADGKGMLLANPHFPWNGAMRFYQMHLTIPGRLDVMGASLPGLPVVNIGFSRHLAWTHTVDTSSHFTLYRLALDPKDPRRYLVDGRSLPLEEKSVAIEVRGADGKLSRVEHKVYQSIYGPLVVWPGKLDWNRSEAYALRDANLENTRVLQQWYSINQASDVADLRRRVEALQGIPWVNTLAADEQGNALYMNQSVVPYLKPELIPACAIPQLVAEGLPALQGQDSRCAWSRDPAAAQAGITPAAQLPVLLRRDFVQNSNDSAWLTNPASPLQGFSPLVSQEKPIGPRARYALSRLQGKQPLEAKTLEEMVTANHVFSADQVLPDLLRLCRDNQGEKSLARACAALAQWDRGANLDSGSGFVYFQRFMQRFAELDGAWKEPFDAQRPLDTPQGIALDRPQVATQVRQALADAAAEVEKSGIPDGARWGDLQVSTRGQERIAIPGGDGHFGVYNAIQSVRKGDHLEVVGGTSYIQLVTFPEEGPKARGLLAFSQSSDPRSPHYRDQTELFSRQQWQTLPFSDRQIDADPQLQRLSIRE
T4 sequence (P98170 whole entry): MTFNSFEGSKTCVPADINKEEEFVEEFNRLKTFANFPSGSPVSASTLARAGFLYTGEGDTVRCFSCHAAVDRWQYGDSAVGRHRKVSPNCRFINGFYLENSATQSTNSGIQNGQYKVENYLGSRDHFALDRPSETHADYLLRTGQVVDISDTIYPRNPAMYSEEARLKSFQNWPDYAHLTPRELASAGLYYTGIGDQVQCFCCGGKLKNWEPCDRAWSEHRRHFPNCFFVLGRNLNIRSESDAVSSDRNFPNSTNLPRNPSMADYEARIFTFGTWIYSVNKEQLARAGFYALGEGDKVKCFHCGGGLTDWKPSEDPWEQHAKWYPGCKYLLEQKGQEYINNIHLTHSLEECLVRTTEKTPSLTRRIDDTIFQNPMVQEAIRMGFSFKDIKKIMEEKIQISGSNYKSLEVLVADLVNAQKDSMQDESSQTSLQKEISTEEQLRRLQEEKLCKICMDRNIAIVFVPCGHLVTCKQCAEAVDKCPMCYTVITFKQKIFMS
Chain of Hexokinase (Q38C41 whole entry): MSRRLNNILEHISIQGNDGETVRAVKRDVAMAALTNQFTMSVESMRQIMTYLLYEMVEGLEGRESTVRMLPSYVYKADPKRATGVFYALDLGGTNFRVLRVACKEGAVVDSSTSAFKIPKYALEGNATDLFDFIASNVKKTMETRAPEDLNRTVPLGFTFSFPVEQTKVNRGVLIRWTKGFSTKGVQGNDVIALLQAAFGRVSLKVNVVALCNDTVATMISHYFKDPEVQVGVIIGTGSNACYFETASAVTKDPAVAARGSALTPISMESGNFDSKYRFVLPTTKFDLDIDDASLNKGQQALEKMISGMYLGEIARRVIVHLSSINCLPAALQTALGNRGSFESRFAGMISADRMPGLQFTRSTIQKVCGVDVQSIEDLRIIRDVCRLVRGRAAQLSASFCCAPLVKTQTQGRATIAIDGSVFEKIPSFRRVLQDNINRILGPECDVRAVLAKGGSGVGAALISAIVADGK
T1 sequence (P41145 whole entry): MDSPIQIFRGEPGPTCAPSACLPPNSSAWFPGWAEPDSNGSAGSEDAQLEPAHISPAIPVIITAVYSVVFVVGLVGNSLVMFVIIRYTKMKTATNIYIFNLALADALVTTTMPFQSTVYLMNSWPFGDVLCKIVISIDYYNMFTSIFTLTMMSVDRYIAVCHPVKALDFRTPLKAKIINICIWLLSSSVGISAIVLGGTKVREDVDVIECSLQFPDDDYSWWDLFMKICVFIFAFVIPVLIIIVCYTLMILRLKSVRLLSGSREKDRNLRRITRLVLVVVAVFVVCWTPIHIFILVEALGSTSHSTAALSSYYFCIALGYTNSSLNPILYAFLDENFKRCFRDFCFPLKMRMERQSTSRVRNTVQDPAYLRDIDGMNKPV

Question: For `C/C(=N\NC(=O)c1cc(Br)ccc1O)c1ccccn1`, which IC50 (HEK293 [1]) is on record?
Answer: 17.6 µM (active)

Question: And the IC50 (HEK293 [2])?
Answer: > 20 µM (inactive)

Question: What about the IC50 (Nonstructural protein 1) of the same compound?
Answer: 30.4 µM (active)

Question: What about the EC50 [3] of the same compound?
Answer: 0.43 µM (active)

Question: What about the EC50 [4] of the same compound?
Answer: 10.2 µM (inconclusive)

Question: And the IC50 [5]?
Answer: > 32 µM

Question: And the AC50 (INS1)?
Answer: 1.74 µM (active)

Question: What about the EC50 (HEK293 [6]) of the same compound?
Answer: > 20 µM (inactive)

Question: What about the IC50 (Vero [7]) of the same compound?
Answer: > 25 µM (active)

Question: What about the IC50 (HEK293 [8]) of the same compound?
Answer: > 20 µM (inactive)

Question: And the EC50 [9]?
Answer: 10.3 µM (active)

Question: What about the CC50 (Vero [10]) of the same compound?
Answer: 3.81 µM (active)

Question: What about the EC50 (Streptococcus) of the same compound?
Answer: 3.7 µM (active)

Question: What about the EC50 [11] of the same compound?
Answer: 5.29 µM (active)

Question: And the EC50 [12]?
Answer: > 20 µM (inactive)

Question: And the IC50 [13]?
Answer: 3.54 µM (active)

Question: What about the CC50 [14] of the same compound?
Answer: 3.47 µM (active)

Question: And the IC50 (HEK293 [15])?
Answer: 6.47 µM (inactive)

Question: What about the EC50 (Beta-galactosidase) of the same compound?
Answer: > 31.5 µM (inactive)

Question: Which AC50 [16] does the source give for `Cc1cc(NC(=O)c2c(F)c(F)c(F)c(F)c2F)no1` here?
Answer: 1.24 µM (active)

Question: With `CC(C)c1ccc(-n2ncc(Cl)c(Oc3ccc(CO)cc3)c2=O)cc1` as the compound, how does the IC50 [17] read?
Answer: 3.7 µM (active)

Question: With `CCS(=O)(=O)c1ccc(-c2csc(-c3ccc(Cl)cc3)n2)c(Cl)c1Cl` as the compound, how does the IC50 (Fatty acid synthase [18]) read?
Answer: 2.71 µM (active)

Question: What about the IC50 [19] of the same compound?
Answer: 5.51 µM (active)

Question: What about the IC50 (Fatty acid synthase [20]) of the same compound?
Answer: 1.86 µM (active)

Question: Which IC50 (Hexokinase) does the source give for `O=C(Cn1sc2ccccc2c1=O)NC1CCCCC1` here?
Answer: 9.35 µM (active)

Question: Which IC50 (Interleukin-8 [21]) does the source give for `CN(c1ncnc(N)c1[N+](=O)[O-])C1CCCCC1` here?
Answer: 46.8 µM (inactive)

Question: What about the AC50 [16] of the same compound?
Answer: 15.3 µM (active)

Question: And the IC50 (Interleukin-8 [22])?
Answer: 16.9 µM (inactive)

Question: Which IC50 (Hexokinase) does the source give for `CN(C)c1ccc(C(=O)Nc2cc(Cl)ccc2C(=O)O)cc1` here?
Answer: > 25 µM (inactive)

Question: What does the source list for `O=C(O)C1C2C=CC(C2)C1C(=O)Nc1ccc(C(=O)N2CCCCC2)cc1` (stereo not given)?
Answer: IC50 [23]: > 100 µM (inactive); IC50 [24]: > 100 µM (not active)

Question: For `CN(C)c1ccc(/C=c2\c3ccccc3n3c2cc(-c2ccccc2)[n+]3C)cc1`, which AC50 [25] is on record?
Answer: 94 µM (active)

Question: What about the IC50 (Nonstructural protein 1) of the same compound?
Answer: 6.8 µM (active)

Question: And the IC50 [26]?
Answer: 66.8 µM (inactive)

Question: And the AC50 [27]?
Answer: 4.19 µM (active)
